From ChEMBL document CHEMBL1201862, “PubChem BioAssay data set” (2004)
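Dose response: 5 concentrations. Exposure: 48 h. Format: 96-well plates. Endpoint: linear interpolation; highest concentration if not reached. Abbreviation: GI50, concentration required for 50% inhibition of growth.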 Activity calls are given as the source filed them. Rule as the data show it: active = GI50 up to about 1.1 µM and inactive = higher.

Experiments:
Assay in all cases: inhibition of tumour cell growth, NCI panel, 48 h
[1] = test system: MCF7
[2] = test system: A498
[3] = test system: TK-10
[4] = test system: IGROV-1
[5] = test system: RPMI-8226
[6] = test system: DLD-1
[7] = test system: OVCAR-8
[8] = test system: NCI-H522
[9] = test system: EKVX
[10] = test system: HCT-15
[11] = test system: UO-31
[12] = test system: SNB-19
[13] = test system: DU-145
[14] = test system: HOP-18
[15] = test system: OVCAR-3
[16] = test system: M14
[17] = test system: MDA-MB-435
[18] = test system: HL-60
[19] = test system: KM-20L2
[20] = test system: DMS-273
[21] = test system: SN12C
[22] = test system: K562
[23] = test system: RXF 393
[24] = test system: SF-295
[25] = test system: CAKI-1
[26] = test system: MDA-MB-231
[27] = test system: SW-620
[28] = test system: DMS-114
[29] = test system: 786-0
[30] = test system: Hs-578T
[31] = test system: SR
[32] = test system: ACHN
[33] = test system: T47D
[34] = test system: UACC-257
[35] = test system: LXFL 529
[36] = test system: HCT-116
[37] = test system: LOX IMVI
[38] = test system: NCI/ADR-RES
[39] = test system: HOP-92
[40] = test system: Malme-3M
[41] = test system: OVCAR-4
[42] = test system: XF498
[43] = test system: M19-MEL
[44] = test system: SF-268
[45] = test system: SK-MEL-5
[46] = test system: U-251
[47] = test system: SNB-75
[48] = test system: MOLT-4
[49] = test system: A549
[50] = test system: HCC 2998
[51] = test system: CCRF-CEM
[52] = test system: NCI-H226
[53] = test system: SK-MEL-28
[54] = test system: PC-3
[55] = test system: SF-539
[56] = test system: HT-29
[57] = test system: SK-MEL-2
[58] = test system: OVCAR-5
[59] = test system: UACC-62
[60] = test system: SNB-78
[61] = test system: SK-OV-3
[62] = test system: NCI-H460
[63] = test system: KM12
[64] = test system: NCI-H23
[65] = test system: HOP-62
[66] = test system: MDA-N
[67] = test system: BT-549
[68] = test system: COLO 205

**Q.** What does the source list for CC1OC(=O)C2CC3CCCCC3C(/C=C/C3CCCC(C)N3C)C12 (stereo unspecified)?
**A.** GI50 [1]: 90.8 µM (inactive); GI50 [2]: > 100 µM (inactive); GI50 [3]: > 100 µM (inactive); GI50 [4]: > 100 µM (inactive); GI50 [5]: > 100 µM (inactive); GI50 [6]: > 100 µM (inactive); GI50 [7]: > 100 µM (inactive); GI50 [8]: > 100 µM (inactive); GI50 [9]: > 100 µM (inactive); GI50 [10]: > 100 µM; GI50 [11]: > 100 µM (inactive); GI50 [12]: > 100 µM (inactive); GI50 [13]: > 100 µM (inactive); GI50 [14]: > 100 µM (inactive); GI50 [15]: > 100 µM (inactive); GI50 [16]: > 100 µM (inactive); GI50 [17]: > 100 µM (inactive); GI50 [18]: > 100 µM (inactive); GI50 [19]: 79.8 µM (inactive); GI50 [20]: > 100 µM (inactive); GI50 [21]: > 100 µM (inactive); GI50 [22]: > 100 µM (inactive); GI50 [23]: > 100 µM (inactive); GI50 [24]: 63.1 µM (inactive); GI50 [25]: > 100 µM (inactive); GI50 [26]: > 100 µM (inactive); GI50 [27]: > 100 µM (inactive); GI50 [28]: > 100 µM (inactive); GI50 [29]: > 100 µM (inactive); GI50 [30]: > 100 µM (inactive); GI50 [31]: > 100 µM (inactive); GI50 [32]: > 100 µM (inactive); GI50 [33]: > 100 µM (inactive); GI50 [34]: > 100 µM (inactive); GI50 [35]: > 100 µM (inactive); GI50 [36]: > 100 µM (inactive); GI50 [37]: > 100 µM (inactive); GI50 [38]: > 100 µM (inactive); GI50 [39]: > 100 µM (inactive); GI50 [40]: > 100 µM (inactive); GI50 [41]: > 100 µM (inactive); GI50 [42]: > 100 µM (inactive); GI50 [43]: > 100 µM (inactive); GI50 [44]: > 100 µM (inactive); GI50 [45]: 94.6 µM (inactive); GI50 [46]: > 100 µM (inactive); GI50 [47]: > 95.5 µM (inactive); GI50 [48]: > 100 µM (inactive); GI50 [49]: > 100 µM (inactive); GI50 [50]: > 100 µM (inactive); GI50 [51]: > 100 µM (inactive); GI50 [52]: > 100 µM (inactive); GI50 [53]: > 100 µM (inactive); GI50 [54]: > 100 µM (inactive); GI50 [55]: > 100 µM (inactive); GI50 [56]: > 100 µM (inactive); GI50 [57]: 83.2 µM (inactive); GI50 [58]: > 100 µM (inactive); GI50 [59]: > 100 µM (inactive); GI50 [60]: > 22.5 µM (inactive); GI50 [61]: > 100 µM (inactive); GI50 [62]: > 100 µM (inactive); GI50 [63]: > 100 µM (inactive); GI50 [64]: > 100 µM (inactive); GI50 [65]: > 100 µM (inactive); GI50 [66]: > 100 µM (inactive); GI50 [67]: > 100 µM (inactive); GI50 [68]: > 100 µM (inactive)

**Q.** With Clc1ccc2cccc3c2c1C1OC3c2ccccc21 (stereo unspecified) as the molecule, how does the GI50 [2] read?
**A.** Its GI50 is > 100 µM (inactive).

**Q.** What about the GI50 [3] of the same molecule?
**A.** The GI50 was > 100 µM (inactive).

**Q.** What about the GI50 [4] of the same molecule?
**A.** Its GI50 is > 100 µM (inactive).

**Q.** And the GI50 [5]?
**A.** Its GI50 is > 100 µM (inactive).

**Q.** What about the GI50 [6] of the same molecule?
**A.** The GI50 was > 100 µM (inactive).

**Q.** What about the GI50 [7] of the same molecule?
**A.** Its GI50 is > 100 µM (inactive).

**Q.** And the GI50 [8]?
**A.** The GI50 was > 100 µM (inactive).

**Q.** What about the GI50 [9] of the same molecule?
**A.** The GI50 was > 100 µM (inactive).

**Q.** What about the GI50 [11] of the same molecule?
**A.** Its GI50 is > 100 µM (inactive).

**Q.** And the GI50 [12]?
**A.** Its GI50 is > 100 µM (inactive).

**Q.** What about the GI50 [14] of the same molecule?
**A.** Its GI50 is > 100 µM (inactive).

**Q.** And the GI50 [15]?
**A.** The GI50 was > 100 µM (inactive).

**Q.** And the GI50 [16]?
**A.** Its GI50 is > 100 µM (inactive).

**Q.** And the GI50 [18]?
**A.** Its GI50 is > 100 µM (inactive).

**Q.** And the GI50 [19]?
**A.** Its GI50 is 78.9 µM (inactive).

**Q.** And the GI50 [20]?
**A.** Its GI50 is > 100 µM (inactive).

**Q.** What about the GI50 [21] of the same molecule?
**A.** The GI50 was > 100 µM (inactive).

**Q.** And the GI50 [22]?
**A.** The GI50 was 66.7 µM (inactive).

**Q.** What about the GI50 [23] of the same molecule?
**A.** The GI50 was 55.5 µM (inactive).

**Q.** What about the GI50 [24] of the same molecule?
**A.** The GI50 was > 100 µM (inactive).

**Q.** What about the GI50 [27] of the same molecule?
**A.** Its GI50 is > 100 µM (inactive).

**Q.** And the GI50 [28]?
**A.** Its GI50 is > 100 µM (inactive).

**Q.** What about the GI50 [29] of the same molecule?
**A.** Its GI50 is > 100 µM (inactive).

**Q.** What about the GI50 [31] of the same molecule?
**A.** Its GI50 is > 100 µM (inactive).

**Q.** And the GI50 [32]?
**A.** Its GI50 is > 100 µM (inactive).

**Q.** And the GI50 [34]?
**A.** The GI50 was > 100 µM (inactive).

**Q.** What about the GI50 [35] of the same molecule?
**A.** Its GI50 is > 100 µM (inactive).

**Q.** And the GI50 [36]?
**A.** Its GI50 is > 100 µM (inactive).

**Q.** What about the GI50 [37] of the same molecule?
**A.** Its GI50 is > 100 µM (inactive).

**Q.** And the GI50 [39]?
**A.** Its GI50 is 70.8 µM (inactive).

**Q.** What about the GI50 [40] of the same molecule?
**A.** Its GI50 is 34.4 µM (inactive).

**Q.** And the GI50 [42]?
**A.** Its GI50 is > 100 µM (inactive).

**Q.** What about the GI50 [43] of the same molecule?
**A.** The GI50 was > 100 µM (inactive).

**Q.** And the GI50 [44]?
**A.** Its GI50 is > 100 µM (inactive).

**Q.** And the GI50 [46]?
**A.** Its GI50 is > 100 µM (inactive).

**Q.** And the GI50 [47]?
**A.** The GI50 was 99.8 µM (inactive).

**Q.** And the GI50 [48]?
**A.** The GI50 was > 100 µM (inactive).

**Q.** And the GI50 [49]?
**A.** The GI50 was > 100 µM (inactive).

**Q.** And the GI50 [50]?
**A.** The GI50 was > 100 µM (inactive).

**Q.** And the GI50 [51]?
**A.** Its GI50 is > 100 µM (inactive).

**Q.** What about the GI50 [52] of the same molecule?
**A.** The GI50 was > 100 µM (inactive).

**Q.** And the GI50 [53]?
**A.** The GI50 was > 100 µM (inactive).

**Q.** And the GI50 [55]?
**A.** The GI50 was > 100 µM (inactive).

**Q.** What about the GI50 [56] of the same molecule?
**A.** The GI50 was 36.6 µM (inactive).

**Q.** And the GI50 [57]?
**A.** Its GI50 is > 100 µM (inactive).

**Q.** And the GI50 [58]?
**A.** Its GI50 is > 100 µM (inactive).

**Q.** What about the GI50 [59] of the same molecule?
**A.** The GI50 was > 100 µM (inactive).

**Q.** What about the GI50 [60] of the same molecule?
**A.** The GI50 was > 100 µM (inactive).

**Q.** And the GI50 [61]?
**A.** Its GI50 is > 100 µM (inactive).

**Q.** And the GI50 [63]?
**A.** Its GI50 is 71.4 µM (inactive).

**Q.** What about the GI50 [64] of the same molecule?
**A.** The GI50 was > 100 µM (inactive).

**Q.** What about the GI50 [65] of the same molecule?
**A.** The GI50 was > 100 µM (inactive).

**Q.** What about the GI50 [68] of the same molecule?
**A.** The GI50 was > 100 µM (inactive).
